# Data: article PMC5218480 (PLoS ONE, 2017)
# Test system: MV-4-11 cells
# Assay: Gene expression microarray analysis (Affymetrix PrimeView) and GSEA
# Format: cell-based, human
# Parameters: RFU PODN (11730768_x_at) / Fold change /veh PODN (11730768_x_at) / RFU LINC00158 (11744669_a_at) / Fold change /veh LINC00158 (11744669_a_at) / RFU DUSP10 (11751237_a_at) / Fold change /veh DUSP10 (11751237_a_at) / RFU ID3 (11757404_x_at) / Fold change /veh ID3 (11757404_x_at) / RFU PLEKHG5 (11737974_s_at) / Fold change /veh PLEKHG5 (11737974_s_at) / RFU LRRC4B (11730491_at) / Fold change /veh LRRC4B (11730491_at) / RFU GIMAP4 (11747438_a_at) / Fold change /veh GIMAP4 (11747438_a_at) / RFU KRT8 (11758183_x_at) / Fold change /veh KRT8 (11758183_x_at) / RFU CNN1 (11734310_a_at) / Fold change /veh CNN1 (11734310_a_at) / RFU VPS37D (11726825_at) / Fold change /veh VPS37D (11726825_at) / RFU C10orf10 (11716522_x_at) / Fold change /veh C10orf10 (11716522_x_at) / RFU KIR2DL2 /// KIR2DL4 /// KIR2DL5A /// KIR2DL5B /// KIR2DS1 /// KIR2DS2 /// KIR2DS3 /// KIR2DS4 /// KIR3DL3 /// KIR3DL3 /// KIR3DS1 (11738374_at) / Fold change /veh KIR2DL2 /// KIR2DL4 /// KIR2DL5A /// KIR2DL5B /// KIR2DS1 /// KIR2DS2 /// KIR2DS3 /// KIR2DS4 /// KIR3DL3 /// KIR3DL3 /// KIR3DS1 (11738374_at) / RFU C1QL1 (11718748_at) / Fold change /veh C1QL1 (11718748_at) / RFU TMPRSS4 (11747572_a_at) / Fold change /veh TMPRSS4 (11747572_a_at) / RFU HAMP (11756126_x_at) / Fold change /veh HAMP (11756126_x_at) / RFU RNFT2 (11725882_a_at) / Fold change /veh RNFT2 (11725882_a_at) / RFU NR4A2 (11747474_a_at) / Fold change /veh NR4A2 (11747474_a_at) / RFU ABCC12 (11746883_a_at) / Fold change /veh ABCC12 (11746883_a_at) / RFU TMEM136 (11760407_x_at) / Fold change /veh TMEM136 (11760407_x_at) / RFU CLDN22 /// WWC2 (11732394_at) / Fold change /veh CLDN22 /// WWC2 (11732394_at) / RFU HLA-DPB1 (11760878_x_at) / Fold change /veh HLA-DPB1 (11760878_x_at) / RFU SPINT1 (11716480_a_at) / Fold change /veh SPINT1 (11716480_a_at) / RFU GAP43 (11754022_s_at) / Fold change /veh GAP43 (11754022_s_at) / RFU A4GNT (11735810_at) / Fold change /veh A4GNT (11735810_at) / RFU PRB3 (11715151_x_at) / Fold change /veh PRB3 (11715151_x_at) / RFU TUBB4B (11761932_at) / Fold change /veh TUBB4B (11761932_at) / RFU CAPN14 (11732068_a_at) / Fold change /veh CAPN14 (11732068_a_at) / RFU TMCC2 (11721928_a_at) / Fold change /veh TMCC2 (11721928_a_at) / RFU IRGQ (11745062_a_at) / Fold change /veh IRGQ (11745062_a_at) / RFU FAM174B (11720279_a_at) / Fold change /veh FAM174B (11720279_a_at) / RFU TMPRSS4 (11748680_a_at) / Fold change /veh TMPRSS4 (11748680_a_at) / RFU FAM212B (11763350_a_at) / Fold change /veh FAM212B (11763350_a_at) / RFU PLEKHG5 (11743358_a_at) / Fold change /veh PLEKHG5 (11743358_a_at) / RFU ZSCAN30 (11745921_a_at) / Fold change /veh ZSCAN30 (11745921_a_at) / RFU CMKLR1 (11741424_a_at) / Fold change /veh CMKLR1 (11741424_a_at) / RFU LOC101060620 /// MAPK8IP1 (11723275_at) / Fold change /veh LOC101060620 /// MAPK8IP1 (11723275_at) / RFU SPTSSB (11747773_x_at) / Fold change /veh SPTSSB (11747773_x_at) / RFU PRSS12 (11739890_at) / Fold change /veh PRSS12 (11739890_at) / RFU BIN1 (11741810_x_at) / Fold change /veh BIN1 (11741810_x_at) / RFU WNT11 (11732464_a_at) / Fold change /veh WNT11 (11732464_a_at) / RFU C10orf10 (11716521_a_at) / Fold change /veh C10orf10 (11716521_a_at) / RFU C5orf56 (11738089_at) / Fold change /veh C5orf56 (11738089_at) / RFU CYB561 (11721691_x_at) / Fold change /veh CYB561 (11721691_x_at) / RFU ANKRD19P (11752326_a_at) / Fold change /veh ANKRD19P (11752326_a_at) / RFU OR2T12 /// OR2T33 /// OR2T8 (11738714_s_at) / Fold change /veh OR2T12 /// OR2T33 /// OR2T8 (11738714_s_at) / RFU VCAN (11748164_a_at) / Fold change /veh VCAN (11748164_a_at) / RFU JSRP1 (11732532_at) / Fold change /veh JSRP1 (11732532_at) / RFU KRTAP10-11 (11738290_x_at) / Fold change /veh KRTAP10-11 (11738290_x_at) / RFU MYO3A (11730013_a_at) / Fold change /veh MYO3A (11730013_a_at) / RFU EBF3 (11725865_a_at) / Fold change /veh EBF3 (11725865_a_at) / RFU CAMK2N1 (11719241_x_at) / Fold change /veh CAMK2N1 (11719241_x_at) / RFU C5orf56 (11738088_a_at) / Fold change /veh C5orf56 (11738088_a_at) / RFU OLFML3 (11715873_a_at) / Fold change /veh OLFML3 (11715873_a_at) / RFU LOC100653217 /// NTM (11731650_a_at) / Fold change /veh LOC100653217 /// NTM (11731650_a_at) / RFU MAPK11 (11762145_a_at) / Fold change /veh MAPK11 (11762145_a_at) / RFU FIZ1 (11724087_x_at) / Fold change /veh FIZ1 (11724087_x_at) / RFU OASL (11726364_x_at) / Fold change /veh OASL (11726364_x_at) / RFU SOX15 (11748057_x_at) / Fold change /veh SOX15 (11748057_x_at) / RFU CD79A (11719716_a_at) / Fold change /veh CD79A (11719716_a_at) / RFU HIST1H1D (11736915_at) / Fold change /veh HIST1H1D (11736915_at) / RFU CASKIN2 (11723855_a_at) / Fold change /veh CASKIN2 (11723855_a_at) / RFU LOC730098 (11760151_x_at) / Fold change /veh LOC730098 (11760151_x_at) / RFU OR4N2 (11742367_at) / Fold change /veh OR4N2 (11742367_at) / RFU PRRT2 (11749266_a_at) / Fold change /veh PRRT2 (11749266_a_at) / RFU SNX32 (11753110_a_at) / Fold change /veh SNX32 (11753110_a_at) / RFU CDHR5 (11726645_a_at) / Fold change /veh CDHR5 (11726645_a_at) / RFU RCAN1 (11760418_a_at) / Fold change /veh RCAN1 (11760418_a_at) / RFU FAM167A (11723789_a_at) / Fold change /veh FAM167A (11723789_a_at) / RFU FAM26E (11764081_at) / Fold change /veh FAM26E (11764081_at) / RFU ISYNA1 (11749810_s_at) / Fold change /veh ISYNA1 (11749810_s_at) / RFU ACY1 (11761880_at) / Fold change /veh ACY1 (11761880_at) / RFU 11764098_at / Fold change /veh 11764098_at / RFU SAMD14 (11745864_x_at) / Fold change /veh SAMD14 (11745864_x_at) / RFU NPB (11741838_a_at) / Fold change /veh NPB (11741838_a_at) / RFU TMPRSS6 (11731388_a_at) / Fold change /veh TMPRSS6 (11731388_a_at) / RFU KRTAP10-2 (11738614_at) / Fold change /veh KRTAP10-2 (11738614_at) / RFU ARHGAP8 /// PRR5-ARHGAP8 (11727945_x_at) / Fold change /veh ARHGAP8 /// PRR5-ARHGAP8 (11727945_x_at) / RFU KRTAP5-7 /// NADSYN1 (11734609_at) / Fold change /veh KRTAP5-7 /// NADSYN1 (11734609_at) / RFU RASL12 (11751679_a_at) / Fold change /veh RASL12 (11751679_a_at) / RFU CDKN2B (11736163_a_at) / Fold change /veh CDKN2B (11736163_a_at) / RFU PRF1 (11729649_at) / Fold change /veh PRF1 (11729649_at) / RFU, ZNF638 /// ZNF638-IT1 / Fold change vs veh, ZNF638 /// ZNF638-IT1 / RFU, PANK3 / Fold change vs veh, PANK3 / RFU, SH3YL1 / Fold change vs veh, SH3YL1 / RFU, ZEB2 / Fold change vs veh, ZEB2 / RFU, NRIP1 / Fold change vs veh, NRIP1 / RFU, PTTG1IP / Fold change vs veh, PTTG1IP / RFU, CAPN2 / Fold change vs veh, CAPN2 / RFU, MED14 / Fold change vs veh, MED14 / RFU, SNORA58 / Fold change vs veh, SNORA58 / RFU, C1orf63 / Fold change vs veh, C1orf63 / RFU, LRRFIP1 / Fold change vs veh, LRRFIP1 / RFU, NDUFAF7 / Fold change vs veh, NDUFAF7 / RFU, SLC12A2 / Fold change vs veh, SLC12A2 / RFU, IBTK / Fold change vs veh, IBTK / RFU, ESF1 / Fold change vs veh, ESF1 / Fold change vs veh, TMEM50B / RFU, TAOK1 / Fold change vs veh, TAOK1 / RFU, ACBD3 / Fold change vs veh, ACBD3 / RFU, TMA16 / Fold change vs veh, TMA16 / RFU, RWDD3 / Fold change vs veh, RWDD3 / RFU, BCAT1 / Fold change vs veh, BCAT1 / RFU, EDEM3 / Fold change vs veh, EDEM3 / RFU, TMEM33 / Fold change vs veh, TMEM33 / RFU, WDR75 / Fold change vs veh, WDR75 / RFU, AHCTF1 / Fold change vs veh, AHCTF1 / RFU, TFRC / Fold change vs veh, TFRC / RFU, ZDHHC17 / Fold change vs veh, ZDHHC17 / RFU, NOM1 / Fold change vs veh, NOM1 / RFU, ARL8B / Fold change vs veh, ARL8B / RFU, ZBTB11 / Fold change vs veh, ZBTB11 / RFU, TAMM41 / Fold change vs veh, TAMM41 / RFU, KIAA1704 /// LOC100996395 / Fold change vs veh, KIAA1704 /// LOC100996395 / RFU, ING1 / Fold change vs veh, ING1 / RFU, TRMT61B / Fold change vs veh, TRMT61B / RFU, FUBP3 / Fold change vs veh, FUBP3 / RFU, TP53 / Fold change vs veh, TP53 / RFU, TNKS2 / Fold change vs veh, TNKS2 / RFU, ZFP14 / Fold change vs veh, ZFP14 / RFU, ACTR2 / Fold change vs veh, ACTR2 / RFU, PPP3R1 / Fold change vs veh, PPP3R1 / RFU, PIK3R1 / Fold change vs veh, PIK3R1 / RFU, HNRNPA1 / Fold change vs veh, HNRNPA1 / RFU, RNF170 / Fold change vs veh, RNF170 / RFU, ZNF28 / Fold change vs veh, ZNF28 / RFU, RNGTT / Fold change vs veh, RNGTT / RFU, OGT / Fold change vs veh, OGT / RFU, BRD1 / Fold change vs veh, BRD1 / RFU, MARS / Fold change vs veh, MARS / RFU, ZNF655 / Fold change vs veh, ZNF655 / RFU, FAHD1 / Fold change vs veh, FAHD1 / RFU, BDP1 / Fold change vs veh, BDP1 / RFU, LRRCC1 / Fold change vs veh, LRRCC1 / RFU, ARID1A / Fold change vs veh, ARID1A / RFU, ZNF146 / Fold change vs veh, ZNF146 / RFU, ZNF330 / Fold change vs veh, ZNF330 / RFU, GPN3 / Fold change vs veh, GPN3 / RFU, C9orf123 / Fold change vs veh, C9orf123 / RFU, N4BP2L2 / Fold change vs veh, N4BP2L2 / RFU, ARFIP1 / Fold change vs veh, ARFIP1 / RFU, FAM179B / Fold change vs veh, FAM179B / RFU, BCL10 / Fold change vs veh, BCL10 / RFU, UHRF1BP1L / Fold change vs veh, UHRF1BP1L / RFU, BET1 / Fold change vs veh, BET1 / RFU, CNOT2 / Fold change vs veh, CNOT2 / RFU, ZNF268 / Fold change vs veh, ZNF268 / Fold change vs veh, ZNF507 / RFU, DGCR2 / Fold change vs veh, DGCR2 / RFU, WDSUB1 / Fold change vs veh, WDSUB1 / Fold change vs veh, HSP90B1 /// MIR3652 / RFU, ADSS / Fold change vs veh, ADSS / RFU, GK / Fold change vs veh, GK / RFU, ZNF148 / Fold change vs veh, ZNF148 / RFU, TAF9 / Fold change vs veh, TAF9 / RFU, SLC1A5 / Fold change vs veh, SLC1A5 / RFU, SLMO2 / Fold change vs veh, SLMO2 / RFU, ABCC4 / Fold change vs veh, ABCC4 / RFU, LOC101060439 /// RAP1B / Fold change vs veh, LOC101060439 /// RAP1B / RFU, RFX7 / Fold change vs veh, RFX7 / RFU, GTPBP10 / Fold change vs veh, GTPBP10 / RFU, CNEP1R1 / Fold change vs veh, CNEP1R1 / RFU, BIVM-ERCC5 /// ERCC5 / Fold change vs veh, BIVM-ERCC5 /// ERCC5 / RFU, ILF3 / Fold change vs veh, ILF3 / RFU 11762660_at / Fold change /veh 11762660_at / RFU VCAN (11757783_s_at) / Fold change /veh VCAN (11757783_s_at) / RFU DDX43 (11728927_at) / Fold change /veh DDX43 (11728927_at) / RFU KRT8 (11758188_x_at) / Fold change /veh KRT8 (11758188_x_at) / RFU NKD1 (11759106_at) / Fold change /veh NKD1 (11759106_at) / RFU SRD5A1 (11742802_a_at) / Fold change /veh SRD5A1 (11742802_a_at) / RFU TPSAB1 /// TPSB2 (11721975_s_at) / Fold change /veh TPSAB1 /// TPSB2 (11721975_s_at) / RFU GSTM3 (11746129_a_at) / Fold change /veh GSTM3 (11746129_a_at) / RFU IL23R (11737362_x_at) / Fold change /veh IL23R (11737362_x_at) / RFU TMEM51 (11727254_a_at) / Fold change /veh TMEM51 (11727254_a_at) / RFU PIWIL2 (11732686_x_at) / Fold change /veh PIWIL2 (11732686_x_at) / RFU ORM1 (11744905_x_at) / Fold change /veh ORM1 (11744905_x_at) / RFU CCDC152 (11743942_at) / Fold change /veh CCDC152 (11743942_at) / RFU ECM1 (11717891_a_at) / Fold change /veh ECM1 (11717891_a_at) / RFU IL23R (11748794_a_at) / Fold change /veh IL23R (11748794_a_at) / RFU TNFAIP8L3 (11732012_x_at) / Fold change /veh TNFAIP8L3 (11732012_x_at) / RFU MBOAT4 (11741988_at) / Fold change /veh MBOAT4 (11741988_at) / RFU 11764193_at / Fold change /veh 11764193_at / RFU TMEM53 (11763286_at) / Fold change /veh TMEM53 (11763286_at) / RFU MAGEB2 (11727129_at) / Fold change /veh MAGEB2 (11727129_at) / RFU TMEM200A (11744735_a_at) / Fold change /veh TMEM200A (11744735_a_at) / RFU CCDC152 (11751479_a_at) / Fold change /veh CCDC152 (11751479_a_at) / RFU FAM211A (11726209_a_at) / Fold change /veh FAM211A (11726209_a_at) / RFU RGS16 (11746705_a_at) / Fold change /veh RGS16 (11746705_a_at) / RFU VCAN (11755009_s_at) / Fold change /veh VCAN (11755009_s_at) / RFU RHOB (11743442_s_at) / Fold change /veh RHOB (11743442_s_at) / RFU RGS16 (11720943_a_at) / Fold change /veh RGS16 (11720943_a_at) / RFU RGS16 (11720944_at) / Fold change /veh RGS16 (11720944_at) / RFU, VPS4B / Fold change vs veh, VPS4B / RFU, CREB1 / Fold change vs veh, CREB1 / RFU, DNAJC13 / Fold change vs veh, DNAJC13 / RFU, GNAQ / Fold change vs veh, GNAQ / RFU, CDK5R1 / Fold change vs veh, CDK5R1 / RFU, ZRANB3 / Fold change vs veh, ZRANB3 / RFU, CUL4A / Fold change vs veh, CUL4A / RFU, CCNY / Fold change vs veh, CCNY / RFU, UFL1 / Fold change vs veh, UFL1 / RFU, COG3 / Fold change vs veh, COG3 / RFU, DIAPH2 / Fold change vs veh, DIAPH2 / RFU, SKA2 / Fold change vs veh, SKA2 / RFU, AFF3 / Fold change vs veh, AFF3 / RFU, LMF1 / Fold change vs veh, LMF1 / RFU, IPO11 / Fold change vs veh, IPO11 / RFU, DFFB / Fold change vs veh, DFFB / RFU, FOXP1 / Fold change vs veh, FOXP1 / RFU, CARD8 / Fold change vs veh, CARD8 / RFU, STRN3 / Fold change vs veh, STRN3 / RFU, ADK / Fold change vs veh, ADK / RFU, RASSF2 / Fold change vs veh, RASSF2 / RFU, WIPF1 / Fold change vs veh, WIPF1 / RFU, LARP1B / Fold change vs veh, LARP1B / RFU, RASA1 / Fold change vs veh, RASA1 / RFU, RB1 / Fold change vs veh, RB1 / RFU, PPFIA1 / Fold change vs veh, PPFIA1 / RFU, MAT2A / Fold change vs veh, MAT2A / RFU, CCT5 / Fold change vs veh, CCT5 / RFU, WDR92 / Fold change vs veh, WDR92 / RFU, CUX1 / Fold change vs veh, CUX1 / RFU, TTC7A / Fold change vs veh, TTC7A / RFU, TMEM135 / Fold change vs veh, TMEM135 / RFU, DEPTOR / Fold change vs veh, DEPTOR / RFU, CPM / Fold change vs veh, CPM / RFU, DNAJB6 / Fold change vs veh, DNAJB6 / RFU, CACNA2D3 / Fold change vs veh, CACNA2D3 / RFU, DTX4 / Fold change vs veh, DTX4 / RFU, TFCP2 / Fold change vs veh, TFCP2 / RFU, GMCL1 /// GMCL1P1 / Fold change vs veh, GMCL1 /// GMCL1P1 / RFU, AEBP2 / Fold change vs veh, AEBP2 / RFU, SNHG1 /// SNORD22 /// SNORD25 /// SNORD26 /// SNORD27 /// SNORD28 /// SNORD29 /// SNORD31 / Fold change vs veh, SNHG1 /// SNORD22 /// SNORD25 /// SNORD26 /// SNORD27 /// SNORD28 /// SNORD29 /// SNORD31 / Fold change (Aza/veh), C12orf56 (ProbeSet 11735607_a_at) / Fold change (ACY-1035/veh), C12orf56 (ProbeSet 11735607_a_at) / Fold change (Aza/veh), FGFR1OP (ProbeSet 11751329_s_at) / Fold change (ACY-1035/veh), FGFR1OP (ProbeSet 11751329_s_at) / Fold change (Aza/veh), VPS36 (ProbeSet 11739960_a_at) / Fold change (ACY-1035/veh), VPS36 (ProbeSet 11739960_a_at) / RFU SYPL1 (11715823_x_at) / Fold change /veh SYPL1 (11715823_x_at) / RFU IGFBP7 (11715501_s_at) / Fold change /veh IGFBP7 (11715501_s_at) / RFU REEP3 (11722064_at) / Fold change /veh REEP3 (11722064_at) / RFU IGLL1 (11728026_x_at) / Fold change /veh IGLL1 (11728026_x_at): dose or concentration left out as unconfirmed
# Settings: MV-4-11 cells, 48 hours
structure (smiles),measurement,value
Nc1ncn([C@@H]2O[C@H](CO)[C@@H](O)[C@H]2O)c(=O)n1 [azacitidine],Fold change /veh HAMP (11756126_x_at),0.87
